The test system of assay [1] is PMA-activated neutrophils. Kind of assay: ROS production by PMA-activated neutrophils (L012 chemiluminescence). The assay is classed as cell-based, equine. How it is done: Equine neutrophils were isolated from whole blood using EDTA disodium salt (1.6 mg/mL) as an anticoagulant. The blood was drawn from the jugular vein of healthy horses bred and fed under identical conditions without medical treatment. All the experiments were realized with the approval of the ethics committee of the Faculty of Veterinary Medicine of the University of Liege (agreement number 1474). Briefly, the neutrophils were isolated at room temperature (18–22 °C) by centrifugation (400× g; 45 min; 20 °C) on a discontinuous Percoll density gradient according to the method previously described. The cells were gently collected and washed with two volumes of physiological saline solution. After the supernatant removal, the cell pellets were re-suspended in 2 mL PBS and counted for further use.
The ROS produced by PMA-activated neutrophils were measured by L012-enhanced chemiluminescence (CL) under an adaptation of the method previously described by Benbarek et al. and Derochette et al.. Neutrophil suspensions were distributed in the wells (neutrophils/well, 143 μL PBS) of a 96-well microtiter plate (White Combiplate 8, Fisher Scientific) and incubated for 10 min at 37 °C with 2 μL of EA or analogue to reach final concentrations of 10^−8 M, 10^−7 M, 10^−6 M, and 10^−5 M. After incubation, 25 μL CaCl2 (10 mM) and 20 μL L-012 (10^−4 M) were added into the wells (final volume of 200 μL). […] A control was performed with neutrophils activated with PMA (positive Ctrl) in the presence of PBS instead of ellagic acid analogue. Another control was performed with PMA-activated neutrophils in the presence of the vehicle solution of ellagic acid or analogue (1% DMSO) (DMSO, final concentration) and was taken as 100% CL response. The negative control was performed with unstimulated neutrophils (NA) with the CL probe alone. The inhibition percentage was calculated using a similar formula (Equation (1)) as described above.

Assay [2] has as its target T1, human myeloperoxidase (MPO) (Homo sapiens, UniProt P05164).
T1 construct: purchased Calbiochem Millipore
T1 sequence (P05164 49-745): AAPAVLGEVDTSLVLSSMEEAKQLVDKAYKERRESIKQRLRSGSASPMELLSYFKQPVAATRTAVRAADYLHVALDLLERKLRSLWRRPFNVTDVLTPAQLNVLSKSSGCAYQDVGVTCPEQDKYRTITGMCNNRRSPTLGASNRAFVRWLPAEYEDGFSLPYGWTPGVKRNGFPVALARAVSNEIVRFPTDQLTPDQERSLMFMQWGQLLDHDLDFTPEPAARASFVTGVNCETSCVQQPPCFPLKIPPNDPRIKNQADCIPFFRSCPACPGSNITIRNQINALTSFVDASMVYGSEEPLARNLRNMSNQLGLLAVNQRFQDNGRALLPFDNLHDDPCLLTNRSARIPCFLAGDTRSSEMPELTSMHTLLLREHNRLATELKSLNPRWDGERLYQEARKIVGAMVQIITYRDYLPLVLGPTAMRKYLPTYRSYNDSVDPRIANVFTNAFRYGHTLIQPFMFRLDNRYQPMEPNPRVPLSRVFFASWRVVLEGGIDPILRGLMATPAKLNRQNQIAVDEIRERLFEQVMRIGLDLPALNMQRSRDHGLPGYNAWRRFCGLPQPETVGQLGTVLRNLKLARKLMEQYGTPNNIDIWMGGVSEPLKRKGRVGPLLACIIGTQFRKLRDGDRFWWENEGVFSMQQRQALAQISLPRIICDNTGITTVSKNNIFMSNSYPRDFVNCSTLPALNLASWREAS
In words: MPO peroxidase activity, classical assay (Amplex Red). The assay is classed as biochemical. The protocol: (§1) Measurement of the peroxidase activity of MPO was performed by a classical enzymatic assay and by SIEFED assay as described by Nyssen et al.. The MPO solution was prepared with purified human MPO in dilution buffer (PBS 20 mM at pH 7.4 with 5 g/L BSA and 0.1% Tween-20). The solutions of EA or analogue, at final concentrations ranging from 10^−8 M to 10^−5 M, were incubated for 10 min with human MPO at a final concentration of 5 mU/mL before further use. The revelation of MPO activity was performed by monitoring the enzyme-catalyzed oxidation of Amplex Red in the presence of H2O2 (10 μM) and nitrite (4.5 mM) in phosphate buffer at pH 7.4.
After incubation, mixtures containing 100 μL of EA/analogue or vehicle (DMSO) and MPO were loaded into wells of microtiter plates (transparent), and the peroxidase activity was measured by adding 10 μL sodium nitrite solution (4.5 mM, final concentration) and 100 μL of the reactional solution containing 10 µM H2O2 and 40 µM Amplex® Red (AR) in phosphate buffer (50 mM) at pH 7.4. The oxidation of AR into the fluorescent resorufin adduct (λexcitation = 544 nm; λemission = 590 nm) was monitored for 30 min at 37 °C with a fluorescent plate reader (Fluoroskan Ascent, Fisher Scientific, Hampton, NH, USA). To eliminate the possibility of the artifact reactions that might arise from MPO activity or its natural substrate (H2O2), the direct reaction of ellagic acid or an analogue with H2O2 was performed in phosphate buffer (PBS) without the addition of human MPO.

Assay [3] has as its target T1, human myeloperoxidase (MPO). Kind of assay: MPO activity by SIEFED assay. The assay is classed as biochemical. How it is done:
as §1
Samples with MPO and various concentrations of […] were prepared and incubated as with the classical assay. An amount of 100 μL of each mixture (MPO alone or MPO + EA/DMSO) was then loaded into the wells of a SIEFED microtiter plate coated with rabbit polyclonal antibodies (3 μg/mL) against human MPO and incubated for 2 h at 37 °C in darkness. After washing up the wells, the activity of the enzyme captured by the antibodies was measured by adding 10 μL sodium nitrite solution (4.5 mM, final concentration) and 100 μL of a reactional solution containing 10 μM H2O2 and 40 μM Amplex® in phosphate buffer (50 mM) at pH 7.4. The oxidation of Amplex® Red into the fluorescent adduct resorufin (λexcitation = 544 nm; λemission = 590 nm) was monitored for 30 min at 37 °C with a fluorescent plate reader (Fluoroskan Ascent, Fisher Scientific). As for the MPO direct assay, a control assay set as the relative value of MPO activity was performed with purified MPO in the presence of PBS instead of the samples of EA or analogue dissolved in DMSO. In this SIEFED assay, MPO was bonded by the antibodies into the wells, and EA/analogue was discarded in the washing step before starting the measurement of the enzymatic activity. For both MPO assays, the inhibition percentage was calculated using a similar formula (Equation (1)) as described above.

Entries after “also recorded” stand apart in the source; their conditions may differ.

With `CN(C)C(=O)Oc1cc2c(=O)oc3c(OC(=O)N(C)C)c(OC(=O)N(C)C)cc4c(=O)oc(c1OC(=O)N(C)C)c2c34` [compound 6, Sevellagic acid], the “Inhibition of neutrophil ROS production (in words)” value in assay [1] was “less active than all the other tested compounds”. The “Inhibition of neutrophil ROS production” value in assay [1] (highest concentration) was 58%. Also, the “MPO inhibition, classical assay (in words)” value in assay [2] is “lack of effect”. Moreover, in assay [3], the “MPO activity, SIEFED assay (in words)” value was “weak activity or the absence of inhibition activity”.
Regarding `CCOC1Oc2cc(C(=O)OC)cc(O)c2O1` (stereo not drawn) [compound 11, methyl 2-ethoxy-7-hydroxybenzo[d][1,3]dioxole-5-carboxylate], the “Inhibition of neutrophil ROS production (in words)” value in assay [1] is recorded as “good inhibitory effect”. Besides, the “MPO activity, SIEFED assay (in words)” value in assay [3] is given as “activator of MPO activity; also recorded: promote, rather than inhibit, MPO activity”.
